Where “and” joins values, the source holds several entries; their conditions need not be identical. Identical values can stand only once. Toxic doses and inconclusive results are not listed.
Test system: L1210 leukemia ip in BDF1 mice, survival T/C
Experiment: NCI In Vivo Anticancer Drug Screen. Data for tumor model L1210 Leukemia (intraperitoneal) in B6D2F1 (BDF1) mice
Settings: endpoint: mean survival time, higher = longer survival
In short: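 Each compound was tested against a transplantable tumor grown in mice. The endpoint was survival, with treated animals benchmarked against vehicle controls as a simple ratio.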

[1] = dose: 100.0 mg/kg/injection, schedule: Q01DX001 (ip), vehicle: saline
[2] = dose: 200.0 mg/kg/injection, schedule: Q01DX001 (ip), vehicle: saline
[3] = dose: 400.0 mg/kg/injection, schedule: Q01DX001 (ip), vehicle: saline
[4] = dose: 100.0 mg/kg/injection, schedule: Q01DX009 (ip), vehicle: Klucel (hydroxypropylcellulose) (HPC)
[5] = dose: 100.0 mg/kg/injection, schedule: Q04DX003 (ip), vehicle: saline
[6] = dose: 200.0 mg/kg/injection, schedule: Q01DX009 (ip), vehicle: Klucel (hydroxypropylcellulose) (HPC)
[7] = dose: 100.0 mg/kg/injection, schedule: Q04DX002 (ip), vehicle: Klucel (hydroxypropylcellulose) (HPC)
[8] = dose: 200.0 mg/kg/injection, schedule: Q04DX002 (ip), vehicle: Klucel (hydroxypropylcellulose) (HPC)
[9] = dose: 100.0 mg/kg/injection, schedule: Q04DX003 (ip), vehicle: saline with Tween-80
[10] = dose: 200.0 mg/kg/injection, schedule: Q04DX003 (ip), vehicle: saline with Tween-80
[11] = dose: 400.0 mg/kg/injection, schedule: Q04DX003 (ip), vehicle: saline with Tween-80
[12] = dose: 400.0 mg/kg/injection, schedule: Q01DX009 (ip), vehicle: Klucel (hydroxypropylcellulose) (HPC)
[13] = dose: 25.0 mg/kg/injection, schedule: Q04DX003 (ip), vehicle: saline
[14] = dose: 50.0 mg/kg/injection, schedule: Q04DX003 (ip), vehicle: saline

## CCCCCCCCCCCCCCCC[N+]1(C)CCSCC1
dose: 0.78 mg/kg/injection, schedule: Q01DX009 (ip), vehicle: saline
  T/C: 104 % of control
dose: 1.56 mg/kg/injection, schedule: Q01DX009 (ip), vehicle: saline
  T/C: 111 % of control
dose: 3.13 mg/kg/injection, schedule: Q01DX009 (ip), vehicle: saline
  T/C: 114 % of control
dose: 6.25 mg/kg/injection, schedule: Q01DX009 (ip), vehicle: saline
  T/C: 104 % of control

## C=COC(=O)c1ccccc1 (tested in a mixture with another compound)
dose: 100.0 mg/kg/injection, schedule: Q01DX001 (ip), vehicle: other
  T/C: 97 % of control
[1]
  T/C: 110 % of control [middle of 4 runs]
dose: 200.0 mg/kg/injection, schedule: Q01DX001 (ip), vehicle: other
  T/C: 97 % of control
[2]
  T/C: 97 % of control and 105 % of control and 108 % of control
dose: 400.0 mg/kg/injection, schedule: Q01DX001 (ip), vehicle: other
  T/C: 86 % of control
[3]
  T/C: 101 % of control and 105 % of control and 108 % of control

## c1ccc2sc(SSN3CCOCC3)nc2c1
dose: 50.0 mg/kg/injection, schedule: Q01DX009 (ip), vehicle: Klucel (hydroxypropylcellulose) (HPC)
  T/C: 97 % of control
[4]
  T/C: 113 % of control
[5]
  T/C: 101 % of control
[6]
  T/C: 91 % of control
dose: 200.0 mg/kg/injection, schedule: Q04DX003 (ip), vehicle: saline
  T/C: 92 % of control

## CC(=O)Nc1ccc(Cl)c(F)c1Cl
[7]
  T/C: 104 % of control
[8]
  T/C: 93 % of control
dose: 400.0 mg/kg/injection, schedule: Q04DX002 (ip), vehicle: Klucel (hydroxypropylcellulose) (HPC)
  T/C: 107 % of control

## c1cc2c(c(NC3=NCCN3)c1)CCCC2
dose: 12.5 mg/kg/injection, schedule: Q01DX009 (ip), vehicle: saline with Tween-80
  T/C: 98 % of control
dose: 25.0 mg/kg/injection, schedule: Q01DX009 (ip), vehicle: saline with Tween-80
  T/C: 93 % of control
dose: 50.0 mg/kg/injection, schedule: Q01DX009 (ip), vehicle: saline with Tween-80
  T/C: 95 % of control

## O=NN(CCCl)C(=O)NC1CCC(CC2CCC(NC(=O)N(CCCl)N=O)CC2)CC1 (stereo not given)
dose: 6.0 mg/kg/injection, schedule: Q01DX001 (ip), vehicle: gum acacia
  T/C: 105 % of control
dose: 12.0 mg/kg/injection, schedule: Q01DX001 (ip), vehicle: gum acacia
  T/C: 151 % of control
dose: 46.0 mg/kg/injection, schedule: Q01DX001 (ip), vehicle: gum acacia
  T/C: 184 % of control
dose: 93.0 mg/kg/injection, schedule: Q01DX001 (ip), vehicle: gum acacia
  T/C: 298 % of control
dose: 187.0 mg/kg/injection, schedule: Q01DX001 (ip), vehicle: gum acacia
  T/C: 315 % of control
dose: 250.0 mg/kg/injection, schedule: Q01DX001 (ip), vehicle: gum acacia
  T/C: 318 % of control
dose: 375.0 mg/kg/injection, schedule: Q01DX001 (ip), vehicle: gum acacia
  T/C: 245 % of control

## CCN1CCC(c2ccccc2)(c2ccccc2)C1=N
dose: 75.0 mg/kg/injection, schedule: Q01DX001 (ip), vehicle: carboxymethylcellulose (CMC)
  T/C: 89 % of control

## O=C(O)c1ccccc1-c1ccccc1C(=O)O
[9]
  T/C: 111 % of control
[10]
  T/C: 97 % of control
[11]
  T/C: 94 % of control

## CON1C(=O)c2ccccc2S1=O (stereo not given)
[7]
  T/C: 96 % of control
[8]
  T/C: 92 % of control

## O=C(O)c1cccc(Cl)c1F
dose: 50.0 mg/kg/injection, schedule: Q04DX002 (ip), vehicle: saline with Tween-80
  T/C: 97 % of control
dose: 100.0 mg/kg/injection, schedule: Q04DX002 (ip), vehicle: saline with Tween-80
  T/C: 97 % of control and 107 % of control
dose: 200.0 mg/kg/injection, schedule: Q04DX002 (ip), vehicle: saline with Tween-80
  T/C: 97 % of control

## O=C(Nc1ccccc1C(F)(F)F)Oc1ccc(Cl)cc1Cl
dose: 100.0 mg/kg/injection, schedule: Q01DX009 (ip), vehicle: saline with Tween-80
  T/C: 103 % of control
[9]
  T/C: 94 % of control
dose: 200.0 mg/kg/injection, schedule: Q01DX009 (ip), vehicle: saline with Tween-80
  T/C: 99 % of control
[10]
  T/C: 102 % of control
[11]
  T/C: 86 % of control

## COc1ccc(Cc2ccccc2)c(O)c1
dose: 100.0 mg/kg/injection, schedule: Q01DX009 (ip), vehicle: other
  T/C: 93 % of control
dose: 100.0 mg/kg/injection, schedule: Q04DX003 (ip), vehicle: other
  T/C: 99 % of control
dose: 200.0 mg/kg/injection, schedule: Q01DX009 (ip), vehicle: other
  T/C: 111 % of control
dose: 200.0 mg/kg/injection, schedule: Q04DX003 (ip), vehicle: other
  T/C: 97 % of control
dose: 400.0 mg/kg/injection, schedule: Q04DX003 (ip), vehicle: other
  T/C: 91 % of control

## Nc1c(Cl)ncn2c(=O)n(Cc3ccccc3)nc12
dose: 100.0 mg/kg/injection, schedule: Q01DX001 (ip), vehicle: carboxymethylcellulose (CMC)
  T/C: 96 % of control
dose: 200.0 mg/kg/injection, schedule: Q01DX001 (ip), vehicle: carboxymethylcellulose (CMC)
  T/C: 105 % of control
dose: 400.0 mg/kg/injection, schedule: Q01DX001 (ip), vehicle: carboxymethylcellulose (CMC)
  T/C: 105 % of control

## Cc1cccc(Cl)c1NC(=O)Nc1onc(C)c1C
[4]
  T/C: 103 % of control
[6]
  T/C: 100 % of control
[12]
  T/C: 92 % of control

## Cc1cccc(C(C)(C)C)c1O
[9]
  T/C: 102 % of control
[10]
  T/C: 91 % of control
[11]
  T/C: 94 % of control

## COP(S)(=N/N=C/c1ccccn1)OC
dose: 12.5 mg/kg/injection, schedule: Q04DX003 (ip), vehicle: saline with Tween-80
  T/C: 104 % of control
dose: 25.0 mg/kg/injection, schedule: Q04DX003 (ip), vehicle: saline with Tween-80
  T/C: 95 % of control

## Cc1ccc(S(=O)(=O)OCCN(CCOS(=O)(=O)c2ccc(C)cc2)S(=O)(=O)c2ccc(C)cc2)cc1
[4]
  T/C: 94 % of control
dose: 100.0 mg/kg/injection, schedule: Q04DX003 (ip), vehicle: Klucel (hydroxypropylcellulose) (HPC)
  T/C: 94 % of control
[6]
  T/C: 89 % of control
dose: 200.0 mg/kg/injection, schedule: Q04DX003 (ip), vehicle: Klucel (hydroxypropylcellulose) (HPC)
  T/C: 91 % of control
[12]
  T/C: 96 % of control
dose: 400.0 mg/kg/injection, schedule: Q04DX003 (ip), vehicle: Klucel (hydroxypropylcellulose) (HPC)
  T/C: 91 % of control

## CN1CCC(C=C2c3ccccc3Sc3ccccc32)C1 (stereo not given)
dose: 8.0 mg/kg/injection, schedule: Q01DX015 (ip), vehicle: carboxymethylcellulose (CMC)
  T/C: 110 % of control
dose: 16.0 mg/kg/injection, schedule: Q01DX015 (ip), vehicle: carboxymethylcellulose (CMC)
  T/C: 102 % of control
dose: 32.0 mg/kg/injection, schedule: Q01DX015 (ip), vehicle: carboxymethylcellulose (CMC)
  T/C: 96 % of control
dose: 64.0 mg/kg/injection, schedule: Q01DX015 (ip), vehicle: carboxymethylcellulose (CMC)
  T/C: 98 % of control

## Cc1cc(Cl)cc(C)c1OC(=O)Nc1ccccc1C(F)(F)F
dose: 100.0 mg/kg/injection, schedule: Q01DX009 (ip), vehicle: saline
  T/C: 98 % of control
dose: 200.0 mg/kg/injection, schedule: Q01DX009 (ip), vehicle: saline
  T/C: 91 % of control
dose: 400.0 mg/kg/injection, schedule: Q01DX009 (ip), vehicle: saline
  T/C: 112 % of control

## O=C(OCCO)c1ccc(O)cc1
[1]
  T/C: 88 % of control
[2]
  T/C: 93 % of control
[3]
  T/C: 88 % of control

## Nc1ncnc2c1ncn2CCCCCCl
dose: 12.5 mg/kg/injection, schedule: Q04DX003 (ip), vehicle: saline
  T/C: 90 % of control
[13]
  T/C: 88 % of control
[14]
  T/C: 100 % of control

## CC(=O)COc1cccc2ccccc12
dose: 100.0 mg/kg/injection, schedule: Q01DX009 (ip), vehicle: gum acacia
  T/C: 100 % of control
dose: 200.0 mg/kg/injection, schedule: Q01DX009 (ip), vehicle: gum acacia
  T/C: 99 % of control
dose: 400.0 mg/kg/injection, schedule: Q01DX009 (ip), vehicle: gum acacia
  T/C: 97 % of control

## CCN(CC)CCNc1ncnc2[nH]ncc12
[13]
  T/C: 89 % of control
[14]
  T/C: 86 % of control
[5]
  T/C: 103 % of control and 89 % of control

## COc1ccc(C(C(C(C)=O)C(C)=O)C(C(C)=O)C(C)=O)cc1
[9]
  T/C: 100 % of control
[10]
  T/C: 93 % of control

## Cc1cccc(C(C#N)c2ccc(N)cc2)c1 (stereo not given)
dose: 50.0 mg/kg/injection, schedule: Q01DX001 (ip), vehicle: saline
  T/C: 101 % of control
[1]
  T/C: 101 % of control
[2]
  T/C: 101 % of control

## Cc1ccc(N=Nc2ccc(N(C)C)cc2)c2cccnc12
[9]
  T/C: 113 % of control
[10]
  T/C: 95 % of control
